Measurements published in PMC9822400, “The Lipophilic Purine Nucleoside—Tdp1 Inhibitor—Enhances DNA Damage Induced by Topotecan In Vitro and Potentiates the Antitumor Effect of Topotecan In Vivo” (Molecules, 2022).
Entries after “also recorded” stand apart in the source; their conditions may differ.

What was measured:
[1] = biological target: T1, purified recombinant human Tdp1 (Homo sapiens, UniProt Q9NUW8); experiment: Real-time detection of Tdp1 activity (removal of BHQ1 from a 5′-FAM 16-nt oligonucleotide, fluorescence); format: biochemical; details: 1.5 nM Tdp1, 50 nM oligonucleotide, 25 °C, three independent experiments
T1 construct: made in house
T1 sequence (Q9NUW8 whole entry): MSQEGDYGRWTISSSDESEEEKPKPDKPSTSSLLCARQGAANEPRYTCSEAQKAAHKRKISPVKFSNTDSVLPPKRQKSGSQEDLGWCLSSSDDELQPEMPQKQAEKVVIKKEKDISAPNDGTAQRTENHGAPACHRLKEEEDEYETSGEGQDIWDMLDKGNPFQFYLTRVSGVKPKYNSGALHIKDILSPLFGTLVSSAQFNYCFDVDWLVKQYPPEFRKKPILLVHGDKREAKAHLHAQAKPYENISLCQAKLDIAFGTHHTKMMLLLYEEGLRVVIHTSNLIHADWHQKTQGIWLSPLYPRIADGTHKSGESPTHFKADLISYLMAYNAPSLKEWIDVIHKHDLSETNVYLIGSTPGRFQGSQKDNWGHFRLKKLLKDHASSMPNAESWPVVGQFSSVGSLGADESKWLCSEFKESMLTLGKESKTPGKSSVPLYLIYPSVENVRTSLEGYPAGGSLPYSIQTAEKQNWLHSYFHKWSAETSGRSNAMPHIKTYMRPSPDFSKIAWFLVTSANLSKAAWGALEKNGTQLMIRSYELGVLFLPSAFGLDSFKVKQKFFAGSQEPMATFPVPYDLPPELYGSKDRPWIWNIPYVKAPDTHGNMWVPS
Method: In this work, four natural nucleosides (1-4) and […] aromatic lipophilic derivatives of purine nucleosides (5a-f, 6a-d) were tested for Tdp1 activity. The used test system was based on the enzyme’s ability to remove Black Hole Quencher 1 (BHQ1) from the 3′ end of a 5′ FAM 16-nt oligonucleotide. As a result, an increase in FAM fluorescence was detected and the obtained kinetic curves were used to calculate the IC50 parameter (the concentration of the inhibitor at which the enzyme activity is reduced by half). We have found potent Tdp1 inhibitors with IC50 in the range from 0.3 to 7 μM (Table 1).
Purified human recombinant Tdp1 was prepared as described earlier. Real-time detection of Tdp1 activity was reported in our previous work. The approach consists of a fluorescence intensity measurement of the reaction of quencher removal from the fluorophore-quencher coupled DNA oligonucleotide catalyzed by Tdp1 in the presence of the inhibitor (the control samples contained 1% DMSO). The biosensor was single-stranded oligonucleotide (5′-[FAM] AAC GTC AGGGTC TTC C [BHQ]-3′) containing fluorophore at the 5′ end (5,6-FAM) and a Black Hole Quencher 1 (BHQ) at the 3′ end, and was synthesized in the Laboratory of nucleic acid chemistry at the Institute of Chemical Biology and Fundamental Medicine SB RAS, Novosibirsk, Russia. The reactions were incubated at a constant temperature 25 °C in a POLARstar OPTIMA fluorimeter, BMG LABTECH, GmbH, to measure fluorescence every 55 s (Ex485/Em520 nm) during the linear phase (here, the data are from 0 to 8 min). […] The IC50 values were determined using a six-point concentration response curve in three independent experiments and calculated using MARS Data Analysis 2.0 (BMG LABTECH).

human recombinant PARP1 = biological target: T2, human recombinant PARP1 (Homo sapiens, UniProt P09874); experiment: PARP1 activity by inclusion of α-[32P]-NAD+ in poly(ADP-ribose); format: biochemical; details: in the presence of 1 mM compound; read-out: Residual activity of PARP1
T2 construct: made in house
T2 sequence (P09874 whole entry): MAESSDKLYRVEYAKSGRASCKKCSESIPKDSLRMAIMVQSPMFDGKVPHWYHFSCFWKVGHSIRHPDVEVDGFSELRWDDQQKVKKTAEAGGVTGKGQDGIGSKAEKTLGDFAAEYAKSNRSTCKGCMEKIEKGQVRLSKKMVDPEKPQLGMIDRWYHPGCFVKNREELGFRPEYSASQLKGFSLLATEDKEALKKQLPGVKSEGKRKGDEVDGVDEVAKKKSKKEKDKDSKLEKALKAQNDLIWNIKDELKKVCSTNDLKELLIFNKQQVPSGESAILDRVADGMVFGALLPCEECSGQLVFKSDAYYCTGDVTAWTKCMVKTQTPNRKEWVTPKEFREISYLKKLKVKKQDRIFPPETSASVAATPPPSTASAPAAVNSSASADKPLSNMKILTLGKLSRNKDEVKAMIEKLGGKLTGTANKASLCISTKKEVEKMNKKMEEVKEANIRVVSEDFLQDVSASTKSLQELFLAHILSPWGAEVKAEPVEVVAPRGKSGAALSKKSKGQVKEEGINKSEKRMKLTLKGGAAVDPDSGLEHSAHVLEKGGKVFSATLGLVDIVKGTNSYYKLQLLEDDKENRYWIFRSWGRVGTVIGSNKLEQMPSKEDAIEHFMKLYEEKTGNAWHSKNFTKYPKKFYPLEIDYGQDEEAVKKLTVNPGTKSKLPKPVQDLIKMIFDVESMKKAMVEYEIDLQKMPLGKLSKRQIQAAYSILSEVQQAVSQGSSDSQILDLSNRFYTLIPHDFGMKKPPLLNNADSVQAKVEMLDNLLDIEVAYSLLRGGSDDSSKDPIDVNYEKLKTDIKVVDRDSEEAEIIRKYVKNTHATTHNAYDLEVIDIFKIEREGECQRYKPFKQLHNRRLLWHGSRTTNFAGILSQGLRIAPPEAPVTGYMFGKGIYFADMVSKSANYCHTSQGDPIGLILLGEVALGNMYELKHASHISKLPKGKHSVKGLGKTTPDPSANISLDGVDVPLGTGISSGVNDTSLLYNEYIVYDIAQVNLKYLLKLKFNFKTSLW
Method: (§1) Since it has previously been shown that nucleoside derivatives can inhibit enzymes of the PARP family, we also checked whether the studied compounds were able to inhibit the enzymes PARP1 and PARP2. […] Thus, when using our compounds, one cannot expect side effects from PARP1/2.
(§2) Purified human recombinant PARP1/2 [65] and [^32P] NAD^+ [27] were prepared as described earlier. The activity of PARP1/2 was evaluated by the rate of incorporation of the radioactive label into the acid-insoluble reaction product—PAR as described previously.

human recombinant PARP2 = biological target: T3, human recombinant PARP2 (Homo sapiens, UniProt Q9UGN5); experiment: PARP2 activity by inclusion of α-[32P]-NAD+ in poly(ADP-ribose); format: biochemical; details: in the presence of 1 mM compound; read-out: Residual activity of PARP2
T3 construct: made in house
T3 sequence (Q9UGN5 whole entry): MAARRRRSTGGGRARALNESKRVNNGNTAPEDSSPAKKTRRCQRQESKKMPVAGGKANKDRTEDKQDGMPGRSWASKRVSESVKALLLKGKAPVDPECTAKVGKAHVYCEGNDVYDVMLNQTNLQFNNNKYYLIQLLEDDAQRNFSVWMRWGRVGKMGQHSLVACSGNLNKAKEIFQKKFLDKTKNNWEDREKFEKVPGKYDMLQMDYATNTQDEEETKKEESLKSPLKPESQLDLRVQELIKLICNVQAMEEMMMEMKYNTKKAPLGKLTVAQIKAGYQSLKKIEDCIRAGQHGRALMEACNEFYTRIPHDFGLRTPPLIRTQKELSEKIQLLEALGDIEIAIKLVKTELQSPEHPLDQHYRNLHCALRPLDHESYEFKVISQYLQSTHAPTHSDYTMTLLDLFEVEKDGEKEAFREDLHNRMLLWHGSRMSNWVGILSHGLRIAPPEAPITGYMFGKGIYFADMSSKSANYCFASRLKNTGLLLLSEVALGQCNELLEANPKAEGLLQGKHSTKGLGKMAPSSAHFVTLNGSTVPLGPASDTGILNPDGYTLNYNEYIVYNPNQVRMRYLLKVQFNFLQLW
Method: as §1, §2

recombinant human Tdp1 = biological target: T4, recombinant human Tdp1 (Homo sapiens, UniProt Q9NUW8); experiment: Steady-state kinetics of the Tdp1 reaction, type of inhibition (Vmax, KM); format: biochemical; details: dependence of Vmax and KM on inhibitor concentration
T4 construct: made in house
T4 sequence (Q9NUW8 whole entry): as the sequence (Q9NUW8 whole entry) above
Method: Then, the values of the Vmax and KM parameters were calculated from the kinetic curves obtained. The conclusion about the type of inhibition was made based on the dependence type of the calculated parameters on the concentration of the inhibitor. […] Such inhibitors, supposedly, will be more specific inhibitors of Tdp1, because they will bind to the enzyme only in the presence of the enzyme-substrate complex. […] For this reason, this compound needs additional study of its inhibition mechanism by other methods.
To determine the kinetic parameters: apparent maximum rate of enzymatic reaction (Vmax), Michaelis constant (KM), and possible inhibition mechanism, steady-state kinetic experiments of Tdp1 enzymatic reaction were carried out at […] fixed concentrations of the substrate with various inhibitor concentrations. The standard reaction mixtures (200 μL) contained 56 nM, 96 nM, 163 nM, 277 nM, 470 nM or 800 nM oligonucleotide substrate, testable inhibitor, 1.5 nM recombinant human Tdp1 and reaction buffer components (50 mM Tris-HCl, pH 8.0, 50 mM NaCl, 7 mM β-mercaptoethanol). After the addition of the enzyme, the reaction mixtures were incubated at a constant temperature of 26 °C and measured in a POLARstar OPTIMA fluorimeter, BMG LABTECH, GmbH, to measure fluorescence every 55 s (Ex485/Em520 nm) during the linear phase (data from 0 to 8 minutes). The initial data (kinetic curves) were obtained in three independent experiments and statistically processed in the software OriginPro 8.6.0.

[2] = tested on: mice ascitic Krebs-2 carcinoma; experiment: Antitumor effect of topotecan with compounds in vivo, ascitic Krebs-2 carcinoma model; details: C57Bl/6 mice; for Tumor mass (ascites weight) and number of tumor cells, combination with Tpc compared to only Tpc: Tpc 1 mg/kg + compound 100 mg/kg i/p once on day 4, 6d p = 0.0018
Text: The effect of compounds 5f, 6c and 6d on the effectiveness of Tpc was studied in vivo on a mice ascitic Krebs-2 carcinoma model. Krebs-2 carcinoma can be transplanted into mice of various genetic constitutions. […] This model combines the advantages of in vitro and in vivo approaches to study the cytotoxic effects of compounds, since ascites cells grow in the environment of the body (in vivo), and intraperitoneal administration of the drug ensures its direct contact with tumor cells (in vitro), bypassing absorption, delivery to the tumor, possible transformations, etc.
During the experiment, mice were injected intraperitoneally with 2 × 10^6 ascites cells, after that a liquid ascites tumor grew at the site of inoculation.
The effect of drugs on the tumor was assessed at the end of the experiment by the weight of the ascitic tumor (the difference in the weight of the mouse with the tumor and after tumor removal), as well as by the number of tumor cells in the ascites.
Three- to four-month-old male and female C57Bl/6 mice (19–21 g) from the breeding colony of the Institute of Cytology and Genetics, SB RAS, Novosibirsk, Russia, were used in the study. The animals were kept on sawdust in plastic cages of 5–7 mice per cage with free access to ground food (“Laboratorkorm”, Moscow, Russia) and tap water. All procedures with the mice were performed in accordance with the international rules for experiments on animals [European Communities Directive (86/609 EEC)].
The experimental tumor model was transplantable Krebs-2 carcinoma obtained from the cell depository of the Institute of Cytology and Genetics SB RAS (Novosibirsk, Russia) and was maintained in mice as a transplanted tumor. Krebs-2 was obtained from epithelial cells of the abdominal wall of a mouse. Krebs-2 carcinoma is nonspecific in its host requirements and can be grafted into mice with any genetic context. With intraperitoneal inoculation, it forms an ascites form.
The antitumor effect was assessed by the weight of the ascites and by the number of tumor cells in ascites. The weight of Krebs-2 ascites was assessed by the difference in the weight of mice before and after the removal of ascites. The number of tumor cells in ascites was determined using a hemocytometer Goryaev camera. In autopsied mice, the weights of liver, lung, heart, kidneys, and spleen were assessed as well as the tumor and body weights.
The animals were treated once in total dose of Tpc 1 mg/kg and Tdp1 inhibitor (5f, 6c or 6d) 100 mg/kg. We started the treatment on the fourth day after the tumor was inoculated, with the expectation that it had just begun to form. […] The animals were euthanized eight days after the transplantation and the compound effect on mice was evaluated by measuring the tumor weight and number of tumor cells in ascites.

Row | SMILES | IC50 [1] | remaining activity at 1000 µM (human recombinant PARP1) | remaining activity at 1000 µM (human recombinant PARP2) | Type of inhibition of Tdp1 (recombinant human Tdp1) | Tumor mass (ascites weight) and number of tumor cells, combination with Tpc compared to only Tpc [2] | Tumor mass (ascites weight) and number of tumor cells, compound alone ([2]; compound 100 mg/kg i/p once on day 4, 100 mg/kg)
1 | O[C@@H]1[C@H](O)[C@@H](COC(c2ccccc2)(c2ccccc2)c2ccccc2)O[C@H]1n1cnc2c(NC(c3ccccc3)(c3ccccc3)c3ccccc3)ncnc21 [compound 5f] | 0.3 ± 0.06 µM | 100 ± 10% | 113 ± 18% | uncompetitive type of inhibition | no sensitizing effect; also recorded: did not result in a reliable decrease | –
2 | O=C(OC[C@H]1O[C@@H](n2cnc3c(Cl)nc(F)nc32)[C@H](OC(=O)c2ccccc2)[C@@H]1OC(=O)c1ccccc1)c1ccccc1 [compound 6c, 2-Fluoro-6-chloro-9-(2,3,5-tri-O-benzoyl-β-D-ribofuranosyl)purine] | 1 ± 0.2 µM | 82 ± 17% | 80 ± 20% | uncompetitive type of inhibition; also recorded: nonlinear dependence | did not obtain the sensitizing effect; also recorded: did not result in a reliable decrease | –
3 | O=C(OC[C@H]1O[C@@H](n2cnc3c(Cl)nc(Cl)nc32)[C@H](OC(=O)c2ccccc2)[C@@H]1OC(=O)c1ccccc1)c1ccccc1 [compound 6d, 2,6-dichloro-9-(2,3,5-tri-O-benzoyl-β-D-ribofuranosyl)purine] | 0.82 ± 0.02 µM | 96 ± 12% | 86 ± 9% | uncompetitive type of inhibition; also recorded: uncompetitive mechanism | significant decrease; also recorded: synergistic decrease of tumor size | did not affect this parameter; also recorded: did not affect tumor growth
